Test results as given in ChEMBL document CHEMBL5137128, “Daphnoretin Arrests the Cell Cycle and Induces Apoptosis in Human Breast Cancer Cells” (J Nat Prod, 2022).
Active and inactive are the calls of the source. The rule behind the calls is not given here.

Legend:
MCF7 [1] = assay: Induction of morphological changes in human MCF7 cells assessed as decrease in cell numbers at 1 to 4 uM by electron microscopic analysis; assay type: functional, cell-based; conditions: dose 1-4 µM
MCF7 [2] = assay: Induction of cell cycle arrest in human MCF7 cells assessed as accumulation of S phase cells at 4 uM incubated for 24 hrs by propidium iodide staining based flow cytometry analysis (reference value: 27.84 %); assay type: functional
MDA-MB-231 [3] = assay: Induction of cell cycle arrest in human MDA-MB-231 cells assessed as accumulation of S phase cells at 2 uM incubated for 24 hrs by propidium iodide staining based flow cytometry analysis (reference value: 28.71 %); assay type: functional
MDA-MB-231 [4] = assay: Antiproliferative activity human MDA-MB-231 cells assessed as inhibition of cell proliferation incubated for 24 hrs by MTT assay; assay type: functional, cell-based; conditions: MDA-MB-231, 24 h
MDA-MB-231 [5] = assay: Induction of cell cycle arrest in human MDA-MB-231 cells assessed as G0-G1 phase cells at 2 uM incubated for 24 hrs by propidium iodide staining based flow cytometry analysis (reference value: 66.84 %); assay type: functional
MCF7 [6] = assay: Induction of cell cycle arrest in human MCF7 cells assessed as accumulation of S phase cells at 2 uM incubated for 24 hrs by propidium iodide staining based flow cytometry analysis (reference value: 27.84 %); assay type: functional
MDA-MB-231 [7] = assay: Induction of apoptosis in human MDA-MB-231 cells assessed as increase in cleaved caspase-9 level at 0.5 to 2 uM measured upto 24 hrs by Western blot analysis; assay type: functional, cell-based; conditions: dose 0.5-2 µM
MCF7 [8] = assay: Inhibition of AKT phosphorylation in human MCF7 cells at 1 to 4 uM by Western blot analysis; assay type: cell-based; conditions: dose 1-4 µM
MDA-MB-231 [9] = assay: Induction of cell cycle arrest in human MDA-MB-231 cells assessed as accumulation of S phase cells at 1 uM incubated for 24 hrs by propidium iodide staining based flow cytometry analysis (reference value: 28.71 %); assay type: functional
MCF7 [10] = assay: Induction of cell cycle arrest in human MCF7 cells assessed as G0-G1 phase cells at 4 uM incubated for 24 hrs by propidium iodide staining based flow cytometry analysis (reference value: 71.30 %); assay type: functional
MDA-MB-231 [11] = assay: Induction of cell cycle arrest in human MDA-MB-231 cells assessed as G2/M phase cells at 1 uM incubated for 24 hrs by propidium iodide staining based flow cytometry analysis (reference value: 4.44 %); assay type: functional
MDA-MB-231 [12] = assay: Inhibition of AKT phosphorylation in human MDA-MB-231 cells at 0.5 to 2 uM by Western blot analysis; assay type: cell-based; conditions: dose 0.5-2 µM
MCF7 [13] = assay: Induction of apoptosis in human MCF7 cells assessed as decrease in Bcl-2 level at 1 to 4 uM measured upto 24 hrs by Western blot analysis; assay type: functional, cell-based; conditions: dose 1-4 µM
MDA-MB-231 [14] = assay: Induction of morphological changes in human MDA-MB-231 cells assessed as decrease in cell numbers at 0.5 to 2 uM by electron microscopic analysis; assay type: functional, cell-based; conditions: dose 0.5-2 µM
MDA-MB-231 [15] = assay: Induction of apoptosis in human MDA-MB-231 cells assessed as chromatin condensation at 0.5 to 2 uM incubated for 24 hrs by Hoechst 33258 staining based light microscopic analysis; assay type: functional, cell-based; conditions: dose 0.5-2 µM
MDA-MB-231 [16] = assay: Induction of cell cycle arrest in human MDA-MB-231 cells assessed as G0-G1 phase cells at 0.5 uM incubated for 24 hrs by propidium iodide staining based flow cytometry analysis (reference value: 66.84 %); assay type: functional
MDA-MB-231 [17] = assay: Induction of apoptosis in human MDA-MB-231 cells assessed as increase in Bax level at 0.5 to 2 uM measured upto 24 hrs by Western blot analysis; assay type: functional, cell-based; conditions: dose 0.5-2 µM
MDA-MB-231 [18] = assay: Induction of morphological changes in human MDA-MB-231 cells assessed as cell shrinkage at 0.5 to 2 uM by electron microscopic analysis; assay type: functional, cell-based; conditions: dose 0.5-2 µM
MCF7 [19] = assay: Induction of cell cycle arrest in human MCF7 cells assessed as G2/M phase cells at 4 uM incubated for 24 hrs by propidium iodide staining based flow cytometry analysis (reference value: 0.86 %); assay type: functional
MCF7 [20] = assay: Induction of morphological changes in human MCF7 cells assessed as deformed cells at 1 to 4 uM by electron microscopic analysis; assay type: functional, cell-based; conditions: dose 1-4 µM
MCF7 [21] = assay: Induction of morphological changes in human MCF7 cells assessed as cell shrinkage at 1 to 4 uM by electron microscopic analysis; assay type: functional, cell-based; conditions: dose 1-4 µM
MCF7 [22] = assay: Induction of apoptosis in human MCF7 cells assessed as increase in cleaved caspase-9 level at 1 to 4 uM measured upto 24 hrs by Western blot analysis; assay type: functional, cell-based; conditions: dose 1-4 µM
MCF7 [23] = assay: Induction of apoptosis in human MCF7 cells assessed as chromatin condensation at 1 to 4 uM incubated for 24 hrs by Hoechst 33258 staining based light microscopic analysis; assay type: functional, cell-based; conditions: dose 1-4 µM
MDA-MB-231 [24] = assay: Induction of cell cycle arrest in human MDA-MB-231 cells assessed as G0-G1 phase cells at 1 uM incubated for 24 hrs by propidium iodide staining based flow cytometry analysis (reference value: 66.84 %); assay type: functional
MCF7 [25] = assay: Induction of apoptosis in human MCF7 cells assessed as increase in Bax level at 1 to 4 uM measured upto 24 hrs by Western blot analysis; assay type: functional, cell-based; conditions: dose 1-4 µM
MDA-MB-231 [26] = assay: Induction of apoptosis in human MDA-MB-231 cells assessed as apoptotic bodies at 0.5 to 2 uM incubated for 24 hrs by Hoechst 33258 staining based light microscopic analysis; assay type: functional, cell-based; conditions: dose 0.5-2 µM
MCF7 [27] = assay: Induction of cell cycle arrest in human MCF7 cells assessed as downregulation of cyclin E expression at 1 to 4 uM measured upto 24 hrs by Western blot analysis relative to control; assay type: functional, cell-based; conditions: dose 1-4 µM
MCF7 [28] = assay: Induction of cell cycle arrest in human MCF7 cells assessed as G2/M phase cells at 1 uM incubated for 24 hrs by propidium iodide staining based flow cytometry analysis (reference value: 0.86 %); assay type: functional
MCF7 [29] = assay: Inhibition of PI3K phosphorylation in human MCF7 cells at 1 to 4 uM by Western blot analysis; assay type: cell-based; conditions: dose 1-4 µM
MCF7 [30] = assay: Induction of cell cycle arrest in human MCF7 cells assessed as G0-G1 phase cells at 2 uM incubated for 24 hrs by propidium iodide staining based flow cytometry analysis (reference value: 71.30 %); assay type: functional
MDA-MB-231 [31] = assay: Induction of apoptosis in human MDA-MB-231 cells assessed as increase in cleaved caspase-3 level at 0.5 to 2 uM measured upto 24 hrs by Western blot analysis; assay type: functional, cell-based; conditions: dose 0.5-2 µM
MDA-MB-231 [32] = assay: Induction of cell cycle arrest in human MDA-MB-231 cells assessed as G2/M phase cells at 0.5 uM incubated for 24 hrs by propidium iodide staining based flow cytometry analysis (reference value: 4.44 %); assay type: functional
MCF7 [33] = assay: Antiproliferative activity human MCF7 cells assessed as inhibition of cell proliferation incubated for 24 hrs by MTT assay; assay type: functional, cell-based; conditions: MCF7, 24 h
MCF7 [34] = assay: Induction of cell cycle arrest in human MCF7 cells assessed as G0-G1 phase cells at 1 uM incubated for 24 hrs by propidium iodide staining based flow cytometry analysis (reference value: 71.30 %); assay type: functional
MCF7 [35] = assay: Induction of apoptosis in human MCF7 cells assessed as apoptotic bodies at 1 to 4 uM incubated for 24 hrs by Hoechst 33258 staining based light microscopic analysis; assay type: functional, cell-based; conditions: dose 1-4 µM
MDA-MB-231 [36] = assay: Induction of cell cycle arrest in human MDA-MB-231 cells assessed as G2/M phase cells at 2 uM incubated for 24 hrs by propidium iodide staining based flow cytometry analysis (reference value: 4.44 %); assay type: functional
MCF7 [37] = assay: Induction of apoptosis in human MCF7 cells assessed as increase in cleaved caspase-3 level at 1 to 4 uM measured upto 24 hrs by Western blot analysis; assay type: functional, cell-based; conditions: dose 1-4 µM
MDA-MB-231 [38] = assay: Induction of cell cycle arrest in human MDA-MB-231 cells assessed as accumulation of S phase cells at 0.5 uM incubated for 24 hrs by propidium iodide staining based flow cytometry analysis (reference value: 28.71 %); assay type: functional
MDA-MB-231 [39] = assay: Induction of apoptosis in human MDA-MB-231 cells assessed as nuclear condensation at 0.5 to 2 uM incubated for 24 hrs by Hoechst 33258 staining based light microscopic analysis; assay type: functional, cell-based; conditions: dose 0.5-2 µM
MCF7 [40] = assay: Induction of cell cycle arrest in human MCF7 cells assessed as downregulation of CDK2 expression at 1 to 4 uM measured upto 24 hrs by Western blot analysis relative to control; assay type: functional, cell-based; conditions: dose 1-4 µM
MDA-MB-231 [41] = assay: Induction of morphological changes in human MDA-MB-231 cells assessed as deformed cells at 0.5 to 2 uM by electron microscopic analysis; assay type: functional, cell-based; conditions: dose 0.5-2 µM
MDA-MB-231 [42] = assay: Induction of apoptosis in human MDA-MB-231 cells assessed as decrease in Bcl-2 level at 0.5 to 2 uM measured upto 24 hrs by Western blot analysis; assay type: functional, cell-based; conditions: dose 0.5-2 µM
MDA-MB-231 [43] = assay: Inhibition of PI3K phosphorylation in human MDA-MB-231 cells at 0.5 to 2 uM by Western blot analysis; assay type: cell-based; conditions: dose 0.5-2 µM
MCF7 [44] = assay: Induction of apoptosis in human MCF7 cells assessed as nuclear condensation at 1 to 4 uM incubated for 24 hrs by Hoechst 33258 staining based light microscopic analysis; assay type: functional, cell-based; conditions: dose 1-4 µM
MCF7 [45] = assay: Induction of cell cycle arrest in human MCF7 cells assessed as accumulation of S phase cells at 1 uM incubated for 24 hrs by propidium iodide staining based flow cytometry analysis (reference value: 27.84 %); assay type: functional
MCF7 [46] = assay: Induction of cell cycle arrest in human MCF7 cells assessed as G2/M phase cells at 2 uM incubated for 24 hrs by propidium iodide staining based flow cytometry analysis (reference value: 0.86 %); assay type: functional
MCF7 [47] = assay: Induction of apoptosis in human MCF7 cells assessed as increase in total apoptotic rate at 1 to 4 uM incubated for 24 hrs by propidium iodide staining based flow cytometric analysis; assay type: functional, cell-based; conditions: dose 1-4 µM
MDA-MB-231 [48] = assay: Induction of apoptosis in human MDA-MB-231 cells assessed as increase in total apoptotic rate at 0.5 to 2 uM incubated for 24 hrs by propidium iodide staining based flow cytometry analysis relative to control; assay type: functional, cell-based; conditions: dose 0.5-2 µM
MDA-MB-231 [49] = assay: Induction of cell cycle arrest in human MDA-MB-231 cells assessed as downregulation of CDK2 expression at 0.5 to 2 uM measured upto 24 hrs by Western blot analysis relative to control; assay type: functional, cell-based; conditions: dose 0.5-2 µM
MCF7 [50] = assay: Antiproliferative activity human MCF7 cells assessed as inhibition of cell proliferation at 0.1 to 8 uM incubated for 48 hrs by MTT assay; assay type: functional, cell-based; conditions: dose 0.1-8 µM
MDA-MB-231 [51] = assay: Antiproliferative activity human MDA-MB-231 cells assessed as inhibition of cell proliferation at 0.1 to 8 uM incubated for 48 hrs by MTT assay; assay type: functional, cell-based; conditions: dose 0.1-8 µM
MDA-MB-231 [52] = assay: Induction of cell cycle arrest in human MDA-MB-231 cells assessed as downregulation of cyclin E expression at 0.5 to 2 uM measured upto 24 hrs by Western blot analysis relative to control; assay type: functional, cell-based; conditions: dose 0.5-2 µM

COc1cc2cc(Oc3ccc4ccc(=O)oc4c3)c(=O)oc2cc1O [DAPHNORETIN]
Activity (MCF7 [1]): Active
Activity (MCF7 [2]): 46.53%
Activity (MDA-MB-231 [3]): 47.72%
IC50 (MDA-MB-231 [4]): 1000 nM
Activity (MDA-MB-231 [5]): 36.99%
Activity (MCF7 [6]): 43.73%
Activity (MDA-MB-231 [7]): Active
inhibition (MCF7 [8]): Active
Activity (MDA-MB-231 [9]): 45.58%
Activity (MCF7 [10]): 51.27%
Activity (MDA-MB-231 [11]): 8.43%
inhibition (MDA-MB-231 [12]): Active
Activity (MCF7 [13]): Active
Activity (MDA-MB-231 [14]): Active
Activity (MDA-MB-231 [15]): Active
Activity (MDA-MB-231 [16]): 53.37%
Activity (MDA-MB-231 [17]): Active
Activity (MDA-MB-231 [18]): Active
Activity (MCF7 [19]): 2.2%
Activity (MCF7 [20]): Active
Activity (MCF7 [21]): Active
Activity (MCF7 [22]): Active
Activity (MCF7 [23]): Active
Activity (MDA-MB-231 [24]): 46%
Activity (MCF7 [25]): Active
Activity (MDA-MB-231 [26]): Active
Activity (MCF7 [27]): Active
Activity (MCF7 [28]): 1.92%
inhibition (MCF7 [29]): Active
Activity (MCF7 [30]): 50.95%
Activity (MDA-MB-231 [31]): Active
Activity (MDA-MB-231 [32]): 9.33%
IC50 (MCF7 [33]): 2000 nM
Activity (MCF7 [34]): 59.49%
Activity (MCF7 [35]): Active
Activity (MDA-MB-231 [36]): 15.29%
Activity (MCF7 [37]): Active
Activity (MDA-MB-231 [38]): 37.3%
Activity (MDA-MB-231 [39]): Active
Activity (MCF7 [40]): Active
Activity (MDA-MB-231 [41]): Active
Activity (MDA-MB-231 [42]): Active
inhibition (MDA-MB-231 [43]): Active
Activity (MCF7 [44]): Active
Activity (MCF7 [45]): 38.59%
Activity (MCF7 [46]): 5.32%
Activity (MCF7 [47]): Active
Activity (MDA-MB-231 [48]): Active
Activity (MDA-MB-231 [49]): Active
Activity (MCF7 [50]): Active
Activity (MDA-MB-231 [51]): Active
Activity (MDA-MB-231 [52]): Active
